Assay results reported in article PMC4410942 (Chemistry & Biology, 2015).

How the values were obtained:
PanZ = target: T1, PanZ (Escherichia coli, UniProt P37613); test: 1H-15N HSQC NMR; type: binding; settings: 0.2 mM PanZ, 50 mM Tris-HCl pH 7.5, 0.1 M NaCl, 0.1 mM DTT, 25 °C
T1 construct: co-purifies with substoichiometric CoA derivatives; monomer
T1 sequence (P37613 1-127): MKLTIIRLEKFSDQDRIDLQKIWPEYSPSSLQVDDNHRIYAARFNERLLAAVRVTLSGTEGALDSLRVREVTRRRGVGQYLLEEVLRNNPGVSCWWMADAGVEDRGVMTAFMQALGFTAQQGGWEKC

[1] = target: T2, PanD-PanZ complex (PanD-PanZ.AcCoA) (Escherichia coli, UniProt P37613); test: X-ray crystal structure; type: binding; settings: site on PanZ near the PanD interface; crystals from PEG 3350, bis-Tris propane pH 7.4; one AcCoA per PanZ
T2 construct: heterooctamer (4 PanD + 4 PanZ), about 124 kDa; with Aspartate 1-decarboxylase

[2] = target: T2, PanD-PanZ complex (PanD-PanZ.AcCoA); test: X-ray crystal structure; type: binding; settings: site on PanZ near the PanD interface; crystals from PEG 3350, bis-Tris propane pH 7.4; one AcCoA per PanZ; remark: listed apart in the source
ADC (activated PanD) = ADC (activated PanD) (Escherichia coli, UniProt P0A790); settings: without PanZ; 25 °C; 2.5 μM ADC; curves with and without PanZ.AcCoA fitted with a shared KM

Row | Structure (SMILES) | 1H-15N HSQC NMR (PanZ) | X-ray crystal structure [1] | X-ray crystal structure [2] | KM (ADC (activated PanD))
1 | CC(=O)SCCNC(=O)CCNC(=O)[C@H](O)C(C)(C)COP(=O)(O)OP(=O)(O)OC[C@H]1O[C@@H](n2cnc3c(N)ncnc32)[C@H](O)[C@@H]1OP(=O)(O)O [AcCoA] | Addition of excess AcCoA led to simplification of the spectrum (Figure 3D) | 4CS0 (PanD(S25A)-PanZ.AcCoA) | PDB ID 4CRZ (PanD(T57V)-PanZ.AcCoA) | –
2 | N[C@@H](CC(=O)O)C(=O)O [compound 5, L-aspartate] | – | – | – | Individual curves are fitted to the Michaelis-Menten curve with a shared value of KM
